Measurements as given in patent publication US20130196964A1, “HETEROCYCLICALLY SUBSTITUTED ARYL COMPOUNDS AS HIF INHIBITORS” (BAYER SCHERING PHARMA AKTIENGESELLSCHAFT, priority 2008, published 2013).
Structures can show the parent of a compound that is named as a salt.

System: HCT 116 cells transfected with a luciferase reporter under the control of an HIF-responsive sequence
Test: HIF-luciferase assay
Type: cell-based
Details: Homo sapiens; HCT 116 HIF-luciferase reporter cells, hypoxia chamber (1% O2), 24 h, luminescence
Description: HCT 116 cells were transfected in a stable manner with a plasmid which contained a luciferase reporter under the control of an HIF-responsive sequence. These cells were sown in microtitre plates [20,000 cells/cavity in RPMI 1640 medium with 10% foetal calf serum (FCS) and 100 μg/ml of hygromycin]. Incubation was carried out overnight under standard conditions (5% CO2, 21% O2, 37° C., moistened). The following morning the cells were incubated with various concentrations of the test substances (0-10 μmol/l) in a hypoxia chamber (1% O2). After 24 h, Bright Glo reagent (Promega, Wis., USA) was added in accordance with the manufacturer'/s instructions, and after 5 min the luminescence was measured. Cells which were incubated under normoxia served as background controls.

| IC50 [nM] | Compound |
| --- | --- |
| 0.6 | Cc1cc(-c2nc(-c3ccc(OC(F)(F)F)cc3)no2)nn1Cc1ccnc(N2CCN(C3CC3)CC2)c1 [Example 65, 1-Cyclopropyl-4-{4-[(5-methyl-3-{3-[4-(trifluoromethoxy)phenyl]-1,2,4-oxadiazol-5-yl}-1H-pyrazol-1-yl)methyl]pyridin-2-yl}piperazine] |
| 0.5 | Cc1cc(-c2nc(-c3ccc(C(C)(C)C)cc3)no2)nn1Cc1ccnc(N2CCN(CC(F)(F)F)CC2)c1 [Example 78, 1-[4-({3-[3-(4-tert-Butylphenyl)-1,2,4-oxadiazol-5-yl]-5-methyl-1H-pyrazol-1-yl}methyl)pyridin-2-yl]-4-(2,2,2-trifluoroethyl)piperazine] |
| 1 | Cc1cc(-c2nc(-c3ccc(OC(F)(F)F)cc3)no2)nn1Cc1ccnc(N2CCN(CC(F)(F)F)CC2)c1 [Example 72, 1-{4-[(5-Methyl-3-{3-[4-(trifluoromethoxy)phenyl]-1,2,4-oxadiazol-5-yl}-1H-pyrazol-1-yl)-methyl]pyridin-2-yl}-4-(2,2,2-trifluoroethyl)piperazine] |
| 10 | Cc1cc(-c2nc(-c3ccc(C4(F)CCOCC4)cc3)no2)nn1Cc1cccc(C(=O)N2CCN(C)CC2)c1 [Example 45] |
| 1 | Cc1cc(-c2nc(-c3ccc(C(C)(C)C)cc3)no2)nn1Cc1ccnc(N2CCN(C3CC3)CC2)c1 [Example 75, 1-[4-({3-[3-(4-tert-Butylphenyl)-1,2,4-oxadiazol-5-yl]-5-methyl-1H-pyrazol-1-yl}methyl)pyridin-2-yl]-4-cyclopropylpiperazine] |
| 4 | Cc1cc(-c2nc(-c3ccc(OC(F)(F)F)cc3)no2)nn1Cc1ccnc(N2CCN(C)C(=O)C2)c1 [Example 86, 1-Methyl-4-{4-[(5-methyl-3-{3-[4-(trifluoromethoxy)phenyl]-1,2,4-oxadiazol-5-yl}-1H-pyrazol-1-yl)methyl]pyridin-2-yl}piperazin-2-one] |
| 2 | Cc1cc(-c2nc(-c3ccc(OC(F)(F)F)cc3)no2)nn1Cc1cccc(C(=O)N2CCN(C3CC3)CC2)c1 [Example 35] |
| 5 | Cc1cc(-c2nc(-c3ccc(OC(F)(F)F)cc3)no2)nn1Cc1ccnc(N2CC(N(C)C)C2)c1 [Example 18] |
| 6 | Cc1cc(-c2nc(-c3ccc(S(=O)(=O)C(F)(F)F)cc3)no2)nn1Cc1cccc(C(=O)N2CCN(C)CC2)c1 [Example 41] |
| 4 | Cc1cc(-c2nc(-c3ccc(OC(F)(F)F)cc3)no2)nn1Cc1ccnc(N2CCC(N(C)C)CC2)c1 [Example 16, N,N-Dimethyl-1-{4-[(5-methyl-3-{3-[4-(trifluoromethoxy)phenyl]-1,2,4-oxadiazol-5-yl}-1H-pyrazol-1-yl)methyl]pyridin-2-yl}piperidin-4-amine] |
| 0.6 | Cc1cc(-c2nc(-c3ccc(C4(C(F)(F)F)CC4)cc3)no2)nn1Cc1ccnc(N2CCN(C3CC3)CC2)c1 [Example 91, 1-Cyclopropyl-4-(4-{[5-methyl-3-(3-{4-[1-(trifluoromethyl)cyclopropyl]phenyl}-1,2,4-oxadiazol-5-yl)-1H-pyrazol-1-yl]methyl}pyridin-2-yl)piperazine] |
| 3 | Cc1cc(-c2nc(-c3ccc(C4(C(F)(F)F)CC4)cc3)no2)nn1Cc1cccc(C(=O)N2CCN(C)CC2)c1 [Example 137, (4-Methylpiperazin-1-yl)(3-{[5-methyl-3-(3-{4-[1-(trifluoromethyl)cyclopropyl]phenyl}-1,2,4-oxadiazol-5-yl)-1H-pyrazol-1-yl]methyl}phenyl)methanone] |
| 2.5 | Cc1cc(-c2nc(-c3ccc(OC(F)(F)F)cc3)no2)nn1Cc1cccc(C(=O)N2CCCO2)c1 [Example 100, {3-[(5-Methyl-3-{3-[4-(trifluoromethoxy)phenyl]-1,2,4-oxadiazol-5-yl}-1H-pyrazol-1-yl)methyl]-phenyl}(1,2-oxazolidin-2-yl)methanone] |
| 10 | Cc1cc(-c2nc(-c3ccc(OC(F)(F)F)cc3)no2)nn1Cc1ccnc(N2CCN(C(C)C)CC2)c1 [Example 21] |
| 1 | COCC1(c2ccc(-c3noc(-c4cc(C)n(Cc5ccnc(N6CCN(C7CC7)CC6)c5)n4)n3)cc2)CCC1 [Example 77, 1-Cyclopropyl-4-(4-{[3-(3-{4-[1-(methoxymethyl)cyclobutyl]phenyl}-1,2,4-oxadiazol-5-yl)-5-methyl-1H-pyrazol-1-yl]methyl}pyridin-2-yl)piperazine] |
| 0.8 | Cc1cc(-c2nc(-c3ccc(OC(F)(F)F)c(F)c3)no2)nn1Cc1ccnc(N2CCN(C3CC3)CC2)c1 [Example 93, 1-Cyclopropyl-4-{4-[(3-{3-[3-fluoro-4-(trifluoromethoxy)phenyl]-1,2,4-oxadiazol-5-yl}-5-methyl-1H-pyrazol-1-yl)methyl]pyridin-2-yl}piperazine] |
| 3 | Cc1cc(-c2nc(-c3ccc(OC(F)(F)F)cc3)no2)cn1Cc1cccc(C(=O)N2CCN(C)CC2)c1 [Example 52] |
| 4 | Cc1cc(-c2nc(-c3ccc(C(C)(C)C(F)(F)F)cc3)no2)nn1Cc1cccc(S(=O)(=O)N2CCC(O)CC2)c1 [Example 140, 1-({3-[(5-Methyl-3-{3-[4-(1,1,1-trifluoro-2-methylpropan-2-yl)phenyl]-1,2,4-oxadiazol-5-yl}-1H-pyrazol-1-yl)methyl]phenyl}sulfonyl)piperidin-4-ol] |
| 20 | Cc1cc(-c2nc(-c3cccc(OC(F)(F)F)c3)no2)nn1Cc1cccc(C(=O)N2CCN(C)CC2)c1 [Example 119, (4-Methylpiperazin-1-yl) {3-[(5-methyl-3-{3-[3-(trifluoromethoxy)phenyl]-1,2,4-oxadiazol-5-yl}-1H-pyrazol-1-yl)methyl]phenyl}methanone hydrochloride] |
| 3 | COC1CCN(c2cc(Cn3nc(-c4nc(-c5ccc(OC(F)(F)F)cc5)no4)cc3C)ccn2)CC1 [Example 150, 2-(4-Methoxypiperidin-1-yl)-4-[(5-methyl-3-{3-[4-(trifluoromethoxy)phenyl]-1,2,4-oxadiazol-5-yl}-1H-pyrazol-1-yl)methyl]pyridine] |
| 1 | Cc1cc(-c2nc(-c3ccc(C4CCOCC4)cc3)no2)nn1Cc1ccnc(N2CCN(C3CC3)CC2)c1 [Example 71, 1-Cyclopropyl-4-{4-[(5-methyl-3-{3-[4-(tetrahydro-2H-pyran-4-yl)phenyl]-1,2,4-oxadiazol-5-yl}-1H-pyrazol-1-yl)methyl]pyridin-2-yl}piperazine] |
| 2 | Cc1cc(-c2nc(-c3ccc(OC(F)(F)F)cc3)no2)nn1Cc1ccnc(N2CCC(C#N)CC2)c1 [Example 85, 1-{4-[(5-Methyl-3-{3-[4-(trifluoromethoxy)phenyl]-1,2,4-oxadiazol-5-yl}-1H-pyrazol-1-yl)-methyl]pyridin-2-yl}piperidine-4-carbonitrile] |
